Assay results as given in PMC6816037 (Computational and Structural Biotechnology Journal, 2019).
pKd: −log10 of the molar value.

Molecular target: XIAP-BIR3 (Homo sapiens, UniProt P98170)
Experiment: surface plasmon resonance
Format: binding

XIAP-BIR3, sequence (P98170 241-356 limits assumed): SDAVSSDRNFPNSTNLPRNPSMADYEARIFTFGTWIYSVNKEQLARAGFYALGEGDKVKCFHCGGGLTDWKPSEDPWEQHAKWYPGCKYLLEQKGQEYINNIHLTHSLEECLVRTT

## C[C@@H]1O[C@@H](O[C@H]2[C@H](Oc3cc(O)c4c(c3)O[C@H](c3ccc(O)c(O)c3)CC4=O)O[C@H](CO)[C@@H](O)[C@@H]2O)[C@H](O)[C@H](O)[C@H]1O [compound 10, neoeriocitrin]
  pKd: 4.88
